The source of these data is US20240197938A1, “ANTIMICROBIAL COMPOUNDS BASED ON GLUCOHEPTONIC ACIDS AND THEIR SALTS” (HARCROS CHEMICALS, INC., priority 2021, published 2024).

Format in all cases: cell-based
Experiment [1] concerns Candida albicans. As to the kind of experiment: ASTM E2315-16 Time-Kill Procedure. Particulars: for Log Reduction: 30 seconds. On the procedure: (§1) Select compounds were tested for antimicrobial activity using ASTM method […]-16 (Standard Guide for Assessment of Antimicrobial Activity using a Time-Kill Procedure). Six microbes were tested: Candida albicans, Staphylococcus aureus, Staphylococcus epidermidis. Escherichia coli, Salmonella abony, and Listeria monocytogenes. Four chlorhexidine salts were tested: chlorhexidine di-α-glucoheptonate (Sample G), chlorhexidine di-β73-glucoheptonate (Sample H), chlorhexidine digluconate (Sample I), and chlorhexidine diacetate (Sample P). Both chlorhexidine diglucoheptonate salts were prepared at a 2:1 molar ratio of glucoheptonic acid to chlorhexidine. Dilutions of each salt were prepared using sterile water (20-30 ppm hardness), to achieve the desired wt. % concentration. Two glucoheptonic acids were evaluated for antimicrobial activity against the same six microbes as Example 13. Sample L was α-glucoheptonic acid. Sample M was β73-glucoheptonic acid. Benzalkonium salts were also tested using the same procedure as set forth in Example 13. The samples were benzalkonium chloride (C12-C16) (Sample C), benzalkonium chloride (C12-C14) (Sample D), benzalkonium chloride in combination with a stoichiometric amount of α-glucoheptonate (Sample F), and benzalkonium chloride in combination with a molar excess of α-glucoheptonate (Sample N). Sample F was prepared by mixing and extensively heating a stoichiometric quantity (1:1) of sodium α-glucoheptonate with benzalkonium chloride, typified by the C12-14 alkyl chain. Sample N was prepared by simply blending benzalkonium chloride, typified by the C12-16 chain, with a molar excess of sodium α-glucoheptonate (1.6:1). Both Samples F and N contain sodium chloride.

In experiment [2] the test system is Staphylococcus epidermidis. As to the kind of experiment: ASTM E2315-16 Time-Kill Procedure. Particulars: for Log Reduction: 30 seconds. On the procedure: as §1
Experiment [3] concerns Staphylococcus aureus. As to the kind of experiment: ASTM E2315-16 Time-Kill Procedure. Particulars: for Log Reduction: 30 seconds. On the procedure:
as §1

In experiment [4] the test system is all microbes (Candida albicans, Staphylococcus aureus, Staphylococcus epidermidis, Escherichia coli, Salmonella abony, Listeria monocytogenes). The experiment is described as follows: ASTM E2315-16 Time-Kill Procedure, average across all microbes. Particulars: for Log Reduction, Average, all microbes: 30 seconds; for average Log Reduction (LR) in microbial population across all microbes: 10 minutes. On the procedure: Select compounds were tested for antimicrobial activity using ASTM method […]-16 (Standard Guide for Assessment of Antimicrobial Activity using a Time-Kill Procedure). Six microbes were tested: Candida albicans, Staphylococcus aureus, Staphylococcus epidermidis. Escherichia coli, Salmonella abony, and Listeria monocytogenes. Four chlorhexidine salts were tested: chlorhexidine di-α-glucoheptonate (Sample G), chlorhexidine di-β73-glucoheptonate (Sample H), chlorhexidine digluconate (Sample I), and chlorhexidine diacetate (Sample P). Both chlorhexidine diglucoheptonate salts were prepared at a 2:1 molar ratio of glucoheptonic acid to chlorhexidine. Dilutions of each salt were prepared using sterile water (20-30 ppm hardness), to achieve the desired wt. % concentration. Samples G, H, I, and P were also tested at a concentration of 0.60 wt % active and evaluated for the average Log Reduction in microbial population at 10 minutes, across all microbes. A further test was conducted at a concentration of 1.0 wt % active and evaluated for the average Log Reduction in microbial population at 10 minutes, across all microbes. Benzalkonium salts were also tested using the same procedure as set forth in Example 13. The samples were benzalkonium chloride (C12-C16) (Sample C), benzalkonium chloride (C12-C14) (Sample D), benzalkonium chloride in combination with a stoichiometric amount of α-glucoheptonate (Sample F), and benzalkonium chloride in combination with a molar excess of α-glucoheptonate (Sample N). Sample F was prepared by mixing and extensively heating a stoichiometric quantity (1:1) of sodium α-glucoheptonate with benzalkonium chloride, typified by the C12-14 alkyl chain. Sample N was prepared by simply blending benzalkonium chloride, typified by the C12-16 chain, with a molar excess of sodium α-glucoheptonate (1.6:1). Both Samples F and N contain sodium chloride. A further antimicrobial test was conducted to determine the log reduction at 10 minutes. Samples C, D, F, and N are as defined above.

Experiment [5] deals with Salmonella abony. As to the kind of experiment: ASTM E2315-16 Time-Kill Procedure. Particulars: 30 seconds. How it is done: as §1, with “concentration.” for “concentration. Two glucoheptonic acids were evaluated for antimicrobial activity against the same six microbes as Example 13. Sample L was α-glucoheptonic acid. Sample M was β73-glucoheptonic acid.”
Experiment [6] relates to Listeria monocytogenes. As to the kind of experiment: ASTM E2315-16 Time-Kill Procedure. Particulars: for Log Reduction: 30 seconds. On the procedure:
as §1, with “concentration.” for “concentration. Two glucoheptonic acids were evaluated for antimicrobial activity against the same six microbes as Example 13. Sample L was α-glucoheptonic acid. Sample M was β73-glucoheptonic acid.”

In experiment [7] the test system is Escherichia coli. The experiment is described as follows: ASTM E2315-16 Time-Kill Procedure. Particulars: 30 seconds. On the procedure: as §1, with “concentration.” for “concentration. Two glucoheptonic acids were evaluated for antimicrobial activity against the same six microbes as Example 13. Sample L was α-glucoheptonic acid. Sample M was β73-glucoheptonic acid.”

The mark [8] stands for this setting: 2.5 % w/w, contact time 10 minutes.
Where [9] appears, read: 5.0 % w/w, contact time 10 minutes.
[10] abbreviates: 5.0 % w/w, contact time 5 minutes.

Turning to `N=C(NCCCCCCNC(=N)NC(=N)Nc1ccc(Cl)cc1)NC(=N)Nc1ccc(Cl)cc1.O=C(O)C(O)C(O)C(O)C(O)C(O)CO.O=C(O)C(O)C(O)C(O)C(O)C(O)CO` [Sample G, chlorhexidine di-α-glucoheptonate], the “Log Reduction” value amounted to 0.75 in experiment [1] (0.20% (wt. %)); 1.45 in experiment [1] (0.60% (wt. %)); 4.56 in experiment [1] (1.00% (wt. %)); 0.95 in experiment [2] (0.20% (wt. %)); 1.91 in experiment [2] (0.60% (wt. %)); 3.65 in experiment [2] (1.00% (wt. %)). The “Log Reduction” value in experiment [3] (0.20% (wt. %)) is given as 0.77; in experiment [3] (0.60% (wt. %)) it was 1.07; in experiment [3] (1.00% (wt. %)), 3.06; in experiment [5] (0.20% (wt. %)), 3.04; in experiment [5] (0.60% (wt. %)) it was 3.14; in experiment [5] (1.00% (wt. %)) it was 3.39. Further, the “Log Reduction” value in experiment [6] (0.20% (wt. %)) was 1.34; in experiment [6] (0.60% (wt. %)), 1.49; in experiment [6] (1.00% (wt. %)), 4.99; in experiment [7] (0.20% (wt. %)), 3.57; in experiment [7] (0.60% (wt. %)), 3.66; in experiment [7] (1.00% (wt. %)) it was 3.77. The “performance in the Time-Kill Test” value in experiment [1] (in words) and in experiment [6] (in words) was “performed very strongly” each time. The “Log Reduction, Average, all microbes” value came out at 1.74 in experiment [4] (0.20% (wt. %)), 2.12 in experiment [4] (0.60% (wt. %)) and 3.90 in experiment [4] (1.00% (wt. %)). For the same compound, the “average Log Reduction (LR) in microbial population across all microbes” value (from here on “average Log Reduction (LR)”) came to 3.85 in experiment [4] (0.60 wt % active) and 5.34 in experiment [4] (1.0 wt % active).
As for `N=C(NCCCCCCNC(=N)NC(=N)Nc1ccc(Cl)cc1)NC(=N)Nc1ccc(Cl)cc1.O=C(O)[C@H](O)[C@@H](O)[C@H](O)[C@H](O)CO.O=C(O)[C@H](O)[C@@H](O)[C@H](O)[C@H](O)CO` [Sample I, chlorhexidine digluconate], the “Log Reduction” value in experiment [1] (0.20% (wt. %)) was 2.91; in experiment [1] (0.60% (wt. %)), 4.35; in experiment [1] (1.00% (wt. %)), 6.40; in experiment [2] (0.20% (wt. %)), 2.00; in experiment [2] (0.60% (wt. %)) it was 3.08; in experiment [2] (1.00% (wt. %)) it was 3.25. Further, the “Log Reduction” value in experiment [3] (0.20% (wt. %)) was determined as 1.77; in experiment [3] (0.60% (wt. %)) it was 3.07; in experiment [3] (1.00% (wt. %)) it was 3.37; in experiment [5] (0.20% (wt. %)), 1.86; in experiment [5] (0.60% (wt. %)) it was 2.63; in experiment [5] (1.00% (wt. %)) it was 2.89. The “Log Reduction” value in experiment [6] (0.20% (wt. %)) came out at 1.99; in experiment [6] (0.60% (wt. %)) it was 3.13; in experiment [6] (1.00% (wt. %)), 3.91; in experiment [7] (0.20% (wt. %)) it was 2.93; in experiment [7] (0.60% (wt. %)) it was 3.07; in experiment [7] (1.00% (wt. %)), 3.27. In addition, the results for the “Log Reduction, Average, all microbes” value in experiment [4] (0.20% (wt. %)), in experiment [4] (0.60% (wt. %)) and in experiment [4] (1.00% (wt. %)) were 2.24, 3.22 and 3.85, respectively. Besides, the “average Log Reduction (LR)” value in experiment [4] (0.60 wt % active) is on record as 4.84; in experiment [4] (1.0 wt % active), 5.46.
Turning to `O=C(O)[C@H](O)[C@H](O)[C@@H](O)[C@H](O)[C@H](O)CO` [Sample L, α-glucoheptonic acid], the “Log Reduction (LR)” value in experiment [1] (setting [8]) came out at 3.65; in experiment [1] (setting [9]), 3.00; in experiment [2] (setting [8]) it was 3.39; in experiment [2] (setting [10]) it was 3.05; in experiment [2] (setting [9]), 3.50.
On to `O=C(O)[C@H](O)[C@H](O)[C@@H](O)[C@H](O)[C@H](O)CO` [Sample M, β73-glucoheptonic acid], for which the “Log Reduction (LR)” value in experiment [1] (setting [10]) was determined as 3.47; in experiment [1] (setting [9]) it was 4.00; in experiment [2] (1.0 % w/w, contact time 10 minutes), 3.47; in experiment [2] (2.5 % w/w, contact time 5 minutes), 3.17; in experiment [2] (setting [8]), 3.50; in experiment [2] (setting [10]), 3.39. In addition, the “Log Reduction (LR)” value in experiment [2] (setting [9]) turned out to be 3.47; in experiment [3] (setting [8]), 3.13; in experiment [3] (setting [10]) it was 4.07; in experiment [3] (setting [9]), 4.13.
On to `CC(=O)O.CC(=O)O.NC(=N\CCCCCC/N=C(N)/N=C(\N)Nc1ccc(Cl)cc1)/N=C(\N)Nc1ccc(Cl)cc1` [Sample P, chlorhexidine diacetate], for which the “Log Reduction” value amounted to 2.56 in experiment [1] (0.20% (wt. %)); 3.35 in experiment [1] (0.60% (wt. %)); 4.48 in experiment [1] (1.00% (wt. %)); 1.57 in experiment [2] (0.20% (wt. %)); 3.57 in experiment [2] (0.60% (wt. %)); 3.75 in experiment [2] (1.00% (wt. %)). The “Log Reduction” value in experiment [3] (0.20% (wt. %)) came out at 3.22; in experiment [3] (0.60% (wt. %)), 4.93; in experiment [3] (1.00% (wt. %)), 5.07; in experiment [5] (0.20% (wt. %)), 2.17; in experiment [5] (0.60% (wt. %)), 3.34; in experiment [5] (1.00% (wt. %)) it was 4.34. Besides, the “Log Reduction” value in experiment [6] (0.20% (wt. %)) is reported as 1.29; in experiment [6] (0.60% (wt. %)), 1.36; in experiment [6] (1.00% (wt. %)), 1.55; in experiment [7] (0.20% (wt. %)), 1.54; in experiment [7] (0.60% (wt. %)), 1.59; in experiment [7] (1.00% (wt. %)) it was 3.07. Moreover, the “Log Reduction, Average, all microbes” value was found to be 2.06 in experiment [4] (0.20% (wt. %)), 3.02 in experiment [4] (0.60% (wt. %)) and 3.71 in experiment [4] (1.00% (wt. %)). For the same compound, the “average Log Reduction (LR)” value in experiment [4] (0.60 wt % active) was 4.09; in experiment [4] (1.0 wt % active), 5.17.
